Data on 3 molecules can be found in patent US20120076781A1, “METHODS OF TREATING CANCERS WITH HER3 ANTISENSE OLIGONUCLEOTIDES” (ENZON PHARMACEUTICALS, INC., priority 2009, published 2012).

The test system of data set [1] is HCC827R gefitinib resistant cells. Description: Cell proliferation of HCC827R cells under gefitinib (MTT assay). Particulars: highest concentration tested 10 μM. The format is cell-based, human. The protocol:
HCC827 lung adenocarcinoma cells (ATCC CRL-2868) were maintained at 37° C. in a humidified atmosphere of 5% CO2 and 95% air in RPMI medium supplemented with 10% fetal bovine serum. To generate gefitinib resistance, cells were treated with increasing amounts of gefitinib (up to 500 nM) for a period of 3 months.
On the technique in general: Formazan colour is commonly taken as a measure of viable cells.

Data set [2] relates to human HER3 mRNA. Description: Down-regulation of HER3 mRNA in transfected 15PC3 cells, real-time PCR. It is filed as cell-based. Particulars: 25 nM. How it is done:
(§1) 15PC3: The human prostate cancer cell line 15PC3 was cultured in DMEM (Sigma)+10% fetal bovine serum (FBS)+2 mM Glutamax I+gentamicin (25 μg/ml).
(§2) The cells were treated with oligonucleotides using the cationic liposome formulation LipofectAMINE 2000 (Gibco) as transfection vehicle. Cells were seeded in 6-well cell culture plates (NUNC) and treated when 80-90% confluent. Oligomer concentrations ranged from 1 nM to 25 nM final concentration. Formulation of oligomer-lipid complexes was carried out essentially as described by the manufacturer using serum-free OptiMEM (Gibco) and a final lipid concentration of 5 μg/mL LipofectAMINE 2000. Cells were incubated at 37° C. for 4 hours and treatment was stopped by removal of oligomer-containing culture medium. Cells were washed and serum-containing medium was added. After oligomer treatment, cells were allowed to recover for 20 hours before they were harvested for RNA analysis.
(§3) Total RNA was extracted from cells transfected as described above and using the Qiagen RNeasy kit (Qiagen cat. no. 74104) according to the manufacturer's instructions. First strand synthesis was performed using Reverse Transcriptase reagents from Ambion according to the manufacturer's instructions.
(§4) For each sample 0.5 μg total RNA was adjusted to (10.8 μl) with RNase free H2O and mixed with 2 μl random decamers (50 μM) and 4 μl dNTP mix (2.5 mM each dNTP) and heated to 70° C. for 3 min after which the samples were rapidly cooled on ice. After cooling the samples on ice, 2 μl 10× Buffer RT, 1 μl MMLV Reverse Transcriptase (100 U/μl) and 0.25 μl RNase inhibitor (10 U/μl) was added to each sample, followed by incubation at 42° C. for 60 min, heat inactivation of the enzyme at 95° C. for 10 min, and then cooling the sample to 4° C.
(§5) The sample content of human HER3, EGFR and HER2 mRNA was quantified using the human HER3, EGFR and HER2 ABI Prism Pre-Developed TaqMan Assay Reagents (Applied Biosystems cat. no. Hs00951444_ml (HER3), Hs00193306_ml (EGFR) and Hs00170433_ml (HER2) according to the manufacturer's instructions.
(§6) Glyceraldehyde-3-phosphate dehydrogenase (GAPDH) mRNA quantity was used as an endogenous control for normalizing any variance in sample preparation. The sample content of human GAPDH mRNA was quantified using the human GAPDH ABI Prism Pre-Developed TaqMan Assay Reagent (Applied Biosystems cat. no. 4310884E) according to the manufacturer's instructions.
(§7) The cDNA from the first strand synthesis performed as described in Example 5 was diluted 2-20 times, and analyzed by real time quantitative PCR using Taqman 7500 FAST or 7900 FAST from Applied Biosystems. The primers and probe were mixed with 2× Taqman Fast Universal PCR master mix (2×) (Applied Biosystems Cat. #4364103) and added to 4 μl cDNA to a final volume of 10 μl. Each sample was analysed in duplicate. Assaying 2-fold dilutions of a cDNA that had been prepared on material purified from a cell line expressing the RNA of interest generated standard curves for the assays. Sterile H2O was used instead of cDNA for the no-template control. PCR program: 95° C. for 30 seconds, followed by 40 cycles of 95° C., 3 seconds, 60° C., 20-30 seconds. Relative quantities of target mRNA sequence were determined from the calculated Threshold cycle using the Applied Biosystems Fast System SDS Software Version 1.3.1.21. or SDS Software Version 2.3.
(§8) Oligonucleotides presented in Table 4 were evaluated for their potential to down-regulate HER3, EGFR and HER2 mRNA at concentrations of 1, 5 and 25 nM in 15PC3 cells (or HUH-7 as indicated by *) (see FIGS. 2, 3, 4 and 5). SEQ ID NOs: 235 and 236 were used as scrambled controls.
(§9) The data in Table 4 are presented as percentage down-regulation of mRNA relative to mock transfected cells at 25 nM. Lower-case letters represent DNA monomers, bold, upper-case letters represent β-D-oxy-LNA monomers. All cytosines in LNA monomers are 5-methylcytosines. Subscript “s” represents a phosphorothioate linkage.
In general terms: In qPCR the cycle at which signal appears reflects the starting amount.

The next data set deals with human EGFR mRNA. Kind of data set: Down-regulation of EGFR mRNA in transfected 15PC3 cells, real-time PCR. The format is cell-based. The following applies: 25 nM. The protocol: as §1, §2, §3, §4, §5, §6, §7, §8, §9
The subject of another data set is human HER2 mRNA. Description: Down-regulation of HER2 mRNA in transfected 15PC3 cells, real-time PCR. The format is cell-based. Particulars: 25 nM. The protocol: as §1, §2, §3, §4, §5, §6, §7, §8, §9
A further data set has as its system Mouse HER3 mRNA. Description: HER3 mRNA knockdown in liver of nude mice bearing 15PC3 xenografts, qd x 5 (qRT-PCR). It is filed as in vivo. Particulars: i.v. How it is done:
(§10) To evaluate the knockdown efficacy of the HER3 oligomeric compounds in vivo, the female nude mice bearing 15PC3 xenografts developed by subcutaneous injection of 5×10^6 cells/mouse into the right axillary flank, were injected intravenously with the oligomers at various doses and injection schedules (i.e. single dose, qd, q3d, q4d). Scrambled oligomer SEQ ID NO: 236 served as a negative control. 24 hours after the last injection, the mice were euthanized and liver and tumor tissues were collected in RNAlater solution (Ambion). Total RNA was purified from the tissues and the levels of HER3 mRNA were determined by quantitative reverse transcription-real time PCR (qRT-PCR) using the QuantiTect Probe RT-PCR kit (Cat#: 204443; Qiagen). GAPDH mRNA served as an internal control.
(§11) 200 ng of total RNA was used in the PCR reaction. The data analyses were performed by using the ABI-7500 PCR Fast System included software.
(§12) Data in Table 5 are presented as % HER3 mRNA levels relative to saline treated controls in liver and tumor samples after i.v. dosing of animals on 5 consecutive days with oligonucleotides in the doses indicated.

For data set [3], the system named is human HER3 mRNA. Kind of data set: HER3 mRNA knockdown in 15PC3 xenograft tumor in nude mice, qd x 5 (qRT-PCR). It is filed as in vivo. The following applies: 32.4 mg/kg, i.v., relative to saline controls. How it is done: as §10, §11, §12
The subject of data set [4] is HER3 mRNA. Kind of data set: HER3 mRNA knockdown in 15PC3 xenograft tumor, different dosing cycle. The format is in vivo, human. The following applies: 32.4 x 4 mg/kg i.v., every third day. The protocol:
as §10
(§13) The knockdown efficacy of oligomers was evaluated in vivo in nude mice bearing xenograft tumors derived from 15PC3 cells or A549 cells (NSCLC) or N87 cells (gastric carcinoma) using a similar protocol to the one described above in Example 11. Oligomers were administered by injection every third day in 2-4 doses. Tissues were harvested 3 or 4 days after the last injection.
(§14) Data in Tables 6 and 7 are presented as % HER3 mRNA or HIF-1 alpha mRNA relative to saline treated controls in liver and tumor samples after i.v. dosing of animals with the indicated oligomers.
(Xenograft models place foreign cells or tissue in a host animal.)

The next data set has as its system HIF-1 alpha mRNA. Kind of data set: HIF-1 alpha mRNA in 15PC3 xenograft tumor, different dosing cycle. The format is in vivo, human. The following applies: 32.4 x 4 mg/kg i.v., every third day. The protocol:
as §10, §13, §14

For data set [5], the system named is HER3 mRNA. Kind of data set: HER3 mRNA knockdown in liver of xenograft-bearing nude mice, different dosing cycle. The format is in vivo, mouse. Particulars: 15PC3 xenograft mice, 32.4 x 4 mg/kg i.v., every third day. How it is done: as §10
The knockdown efficacy of oligomers was evaluated in vivo in nude mice bearing xenograft tumors derived from 15PC3 cells or A549 cells (NSCLC) or N87 cells (gastric carcinoma) using a similar protocol to the one described above in Example 11. […] Tissues were harvested 3 or 4 days after the last injection.
as §14

Data set [6] relates to human HER3 mRNA. Description: Down-regulation of HER3 mRNA in transfected HUH-7 cells, real-time PCR. It is filed as cell-based. The following applies: 25 nM, HUH-7 cells (indicated by *). The protocol: HUH7: The human hepatocarcinoma cell line was cultured in DMEM (Sigma)+10% fetal bovine serum (FBS)+2 mM Glutamax I+gentamicin (25 μg/ml)+1× Non Essential Amino Acids.
The cells were treated with oligonucleotides using the cationic liposome formulation LipofectAMINE 2000 (Gibco) as transfection vehicle. Cells were seeded in 6-well cell culture plates (NUNC) and treated when 80-90% confluent. Oligomer concentrations ranged from 1 nM to 25 nM final concentration. Formulation of oligomer-lipid complexes was carried out essentially as described by the manufacturer using serum-free OptiMEM (Gibco) and a final lipid concentration of 5 μg/mL LipofectAMINE 2000. […]
as §5
Glyceraldehyde-3-phosphate dehydrogenase (GAPDH) mRNA quantity was used as an endogenous control for normalizing any variance in sample preparation. The sample content of human GAPDH mRNA was quantified using the human GAPDH ABI Prism Pre-Developed TaqMan Assay Reagent (Applied Biosystems cat. no. 4310884E) according to the manufacturer's instructions. […]

Marks after values point to notes of the source that are not given here. In the oligonucleotide strings, read from the 5' end, every base follows the letter of its sugar. An asterisk marks phosphorothioate; unmarked linkages are phosphodiester. Other units and linkages are bracketed, terminal groups are in braces. A string of capitals states the bases alone. l = locked nucleic acid (LNA); [5mC] = 5-methylcytosine; d = 2'-deoxy (DNA)

On to `COc1cc2ncnc(Nc3ccc(F)c(Cl)c3)c2cc1OCCCN1CCOCC1` [gefitinib], for which the “cell proliferation of HCC827R cells under gefitinib” value in data set [1] was “resistant to gefitinib even at the highest concentration tested”.
Consider “ASGSAScSaStScSaScStScStSgSGSTSG (antisense lA*lG*lA*dC*dA*dT*dC*dA*dC*dT*dC*dT*dG*lG*lT*lG) [SEQ ID NO: 172, β-D-oxy-LNA/DNA phosphorothioate gapmer antisense oligonucleotide targeting HER3]”, for which the “HER3: percentage down-regulation of mRNA relative to mock transfected cells” value in the data set with human HER3 mRNA [2] is on record as 84.2%. Also, in the data set on human EGFR mRNA, the “EGFR: percentage down-regulation of mRNA relative to mock transfected cells” value came out at 86.2%. Besides, the “HER2: percentage down-regulation of mRNA relative to mock transfected cells” value with human HER2 mRNA came to 61%. Besides, the “HER3 mRNA Liver” value is reported as 12.2 ± 5.9 % of Sal ctrl with Mouse HER3 mRNA (9.7 mg/kg) and 7.4 ± 5.2 % of Sal ctrl with Mouse HER3 mRNA (32.4 mg/kg). The “HER3 mRNA Tumor” value in the data set on human HER3 mRNA [3] is recorded as 78.1 ± 15.3%. Moreover, the “Tumor HER3 mRNA relative to saline treated controls” value in the data set on HER3 mRNA [4] stood at 107.3 ± 17%. Moreover, in the data set with HIF-1 alpha mRNA, the “Tumor Hif1A mRNA relative to saline treated controls” value is given as 100.3 ± 7.5%. Also, the “Liver HER3 mRNA relative to saline treated controls” value in the data set on HER3 mRNA [5] is reported as 44.3 ± 10.6%.
Consider “CSASTScSaScStScStSgSgStSgSTSGST (l[5mC]*lA*lT*dC*dA*dC*dT*dC*dT*dG*dG*dT*dG*lT*lG*lT; antisense) [SEQ ID NO: 195]”, for which the “HER3: percentage down-regulation of mRNA relative to mock transfected cells” value with human HER3 mRNA [6] worked out at 64.4%*.
